Reference: patent EP4591860A1, “OPHTHALMIC PHARMACEUTICAL COMPOSITION FOR THE PREVENTION AND TREATMENT OF DRY EYE SYNDROME” (FB Vision S.p.A., priority 2024, dated 2025)
“Also recorded” adds a separate entry of the source.

How the values were obtained:
Type in all cases: cell-based, human
HCEC cells = assay: MTT cell viability assay
Procedure: The primary culture of HCEC (cat. PCS-700-010) was purchased from the American Type Culture Collection (ATCC), Manassas, VA, USA.
The cells were resuspended in basal medium for corneal epithelial cells (devoid of serum and calcium) and supplemented with a growth kit provided by ATCC.
The cells were seeded at a density of 8 × 10^3 cells/well in a 96-well plate and cultured overnight. The cells were then treated with PGB or HA at different concentrations for 24 hours or with empty medium (control). After gently washing them with PBS, the cells were incubated with 0.5 mg/ml MTT solution in the dark for 4 hours. After removing the supernatant, DMSO was added to solubilize the formazan. Absorbance at 570 nm was measured with an ELISA reader (Multiskan MK3) for cell viability.

NF-kβ p65 = NF-kβ p65 DNA binding activity test (TransAM ELISA) in LPS-stimulated HCEC; conditions: 500 ng/ml LPS, 12 hours; PGB 100 µg/ml, HA 100 µg/ml or combination
Procedure: To evaluate the ability of the synergistic composition of the invention to inhibit NF-kβ activity in corneal cells, the NF-kβ p65 DNA Binging activity test was used with the ELISA kit of the TransAM p65 transcription factor (Active Motif, Carlsbad, CA).
HCEC cells were stimulated with 500 ng/ml LPS in the presence and absence of PGB 100 µg/ml, HA 100 µg/ml or a combination of PGB+HA for 12 hours, as described here.
Subsequently, the DNA binding activity of NF-kβ p65 was determined. 12 hours after stimulation with LPS markedly promoted the DNA-binding activity of NF-kβ p65 and the expression of the pro-inflammatory cytokines IL-1β, IL-6 and TNF-α.

IL-1β = assay: LPS-stimulated cytokine secretion in HCEC (ELISA); conditions: 500 ng/mL LPS 24-hour; preincubation 1h; 100 µg/ml each, combination in 1/1 ratio
Procedure: (§1) IL-1b, IL-6 and TNF-a were detected with ELISA kits purchased from Abcam, Cambridge (MA) USA. Data are expressed as mean ± SEM, n=4; *p<0.001 with respect to LPS, **p<0.001 with respect to PGB or HA alone.
(§2) 24-hour exposure of HCECs to 500 ng/mL LPS induced maximal secretion of IL-1β, IL-6, and TNF-α, all of which are released in small amounts under basal conditions, as shown in Figure 22.

IL-6 = assay: LPS-stimulated cytokine secretion in HCEC (ELISA); conditions: 500 ng/mL LPS 24-hour; preincubation 1h; 100 µg/ml each, combination in 1/1 ratio
Procedure: as §1, §2

TNF-α = assay: LPS-stimulated cytokine secretion in HCEC (ELISA); conditions: 500 ng/mL LPS 24-hour; preincubation 1h; 100 µg/ml each, combination in 1/1 ratio
Procedure: as §1, §2

CC(C)C[C@H](CN)CC(=O)O [PGB, (S)-3-(aminomethyl)-5-methylhexanoic acid]
cell viability (MTT) (HCEC cells; 24 hours, 1000 µg/ml): a certain reduction in cell viability | cell viability (MTT), toxicity (HCEC cells; 24 hours, 10, 50, 100, 200 µg/ml): no evidence of toxicity; also recorded: did not show toxicity | DNA-binding activity of NF-kβ p65 (NF-kβ p65): lower DNA-binding activity | LPS-stimulated secretion of IL-1β (IL-1β): significantly reduced | LPS-stimulated secretion of IL-6 (IL-6): significantly reduced | LPS-stimulated secretion of TNF-α (TNF-α): significantly reduced
